Data as given in ChEMBL document CHEMBL1135250, “Identification of a novel, orally bioavailable histamine H(3) receptor antagonist based on the 4-benzyl-(1H-imidazol-4-yl) template” (Bioorg Med Chem Lett, 2002).
Values belong to the molecule of their own block, whether it stands above or below them.

How the values were obtained:
[1] = biological target: Histamine H3 receptor (Cavia porcellus, UniProt Q9JI35); assay: (§1) Compound was evaluated for its binding affinity against Histamine H3 receptor of guinea pig brain membrane
Histamine H3 receptor, sequence (Q9JI35 whole entry): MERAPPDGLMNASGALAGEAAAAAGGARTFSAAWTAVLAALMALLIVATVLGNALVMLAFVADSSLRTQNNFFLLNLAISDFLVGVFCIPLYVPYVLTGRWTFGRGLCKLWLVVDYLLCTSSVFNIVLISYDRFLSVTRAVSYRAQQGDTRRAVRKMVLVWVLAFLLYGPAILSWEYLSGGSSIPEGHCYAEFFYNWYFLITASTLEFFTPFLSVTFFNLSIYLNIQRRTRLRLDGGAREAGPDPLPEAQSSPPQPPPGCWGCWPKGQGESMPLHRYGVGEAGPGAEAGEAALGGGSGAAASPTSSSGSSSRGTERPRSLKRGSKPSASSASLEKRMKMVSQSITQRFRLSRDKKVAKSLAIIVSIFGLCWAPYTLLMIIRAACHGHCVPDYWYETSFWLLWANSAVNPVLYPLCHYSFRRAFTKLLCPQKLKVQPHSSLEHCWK

[2] = system: Cavia porcellus; assay: Effective dose was reported after intravenous administration to guinea pig; assay type: functional
[3] = biological target: Histamine H3 receptor (Cavia porcellus) (UniProt Q9JI35); assay: Compound was evaluated for its inhibitory activity against Histamine H3 receptor of guinea pig brain membrane at a concentration of 1 ug/mL
Histamine H3 receptor (Cavia porcellus), sequence (Q9JI35 whole entry): as above

[4] = biological target: Histamine H3 receptor (Cavia porcellus) (UniProt Q9JI35); assay: as §1; conditions: concentration not given here
[5] = Pharmacokinetic parameter Cmax was measured after administration into monkey at 3 mg/kg; assay type: ADME, organism-based; design: dose 3 mg/kg; conditions: cercopithecidae, in vivo, read-out: AUC
[6] = Pharmacokinetic parameter area under curve (AUC) was measured after administration into rat at 10 mg/kg; assay type: ADME, organism-based; design: dose 10 mg/kg; conditions: in vivo
[7] = Compound at a dose 10 mg/kg was administered to rat and was evaluated for bioavailability after administration into rat at 10 mg/kg; conditions: in vivo, read-out: Bioavailabiility
[8] = biological target: T1, Alpha-2A adrenergic receptor (Homo sapiens) (UniProt P08913); assay: Antagonistic activity towards Alpha-2A adrenergic receptor was calculated; assay type: functional
T1 sequence (whole entry): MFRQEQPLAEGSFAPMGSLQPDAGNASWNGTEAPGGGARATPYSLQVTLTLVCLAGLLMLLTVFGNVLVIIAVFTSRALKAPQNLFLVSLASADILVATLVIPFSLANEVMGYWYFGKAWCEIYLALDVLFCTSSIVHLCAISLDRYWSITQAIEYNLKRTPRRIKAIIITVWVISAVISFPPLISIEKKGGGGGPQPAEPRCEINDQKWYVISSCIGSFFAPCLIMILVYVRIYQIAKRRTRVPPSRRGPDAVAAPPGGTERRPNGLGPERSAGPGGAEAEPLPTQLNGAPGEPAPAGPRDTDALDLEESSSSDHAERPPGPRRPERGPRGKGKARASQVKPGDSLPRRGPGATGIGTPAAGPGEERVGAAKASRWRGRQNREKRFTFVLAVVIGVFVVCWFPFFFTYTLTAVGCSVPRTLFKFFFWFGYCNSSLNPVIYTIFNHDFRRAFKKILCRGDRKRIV

[9] = Antagonistic activity towards dopamine uptake was calculated; assay type: functional
[10] = Compound at a dose 3 mg/kg was administered to monkey and was evaluated for half life after administration into monkey at 3 mg/kg; assay type: ADME, organism-based; conditions: cercopithecidae, in vivo
[11] = Pharmacokinetic parameter Cmax was measured after administration into rat at 10 mg/kg; assay type: ADME, organism-based; design: dose 10 mg/kg; conditions: in vivo
[12] = system: Cercopithecidae; assay: Pharmacokinetic parameter area under curve (AUC) was measured after administration into monkey at 3 mg/kg; conditions: in vivo
[13] = biological target: Histamine H3 receptor (Cavia porcellus) (UniProt Q9JI35); assay: Compound was evaluated for its binding affinity against Histamine H3 receptor of guinea pig brain membrane, less then 50% inhibition when screened at 1 ug/mL
[14] = biological target: Histamine H3 receptor (Cavia porcellus) (UniProt Q9JI35); assay: Compound was evaluated for its binding affinity against Histamine H3 receptor of guinea pig brain membrane less then 50% inhibition when screened at 1 ug/mL

Ki [1]: 90 nM
SMILES: O=C(NCc1ccc(Cc2c[nH]cn2)cc1)NCc1cc(C(F)(F)F)cc(C(F)(F)F)c1

Ki [1]: 430 nM
SMILES: O=C(NCCc1ccccc1Cl)NCc1ccc(Cc2c[nH]cn2)cc1

SMILES: N=C(NCc1ccc(Cl)cc1)c1ccc(Cc2c[nH]cn2)cc1
ED50 [2]: 0.3 mg/kg

inhibition [3]: 33%
SMILES: O=C(NCc1cccc(Cc2c[nH]cn2)c1)Nc1cc(Cl)cc(Cl)c1

Ki [1]: 370 nM
SMILES: CN(Cc1ccc(Cc2cnc[nH]2)cc1)C(=O)N(C)c1cc(Cl)cc(Cl)c1

inhibition [3]: 36%
SMILES: O=C(Nc1ccc(Cc2c[nH]cn2)cc1)Nc1cc(Cl)cc(Cl)c1

Ki [1]: 270 nM
SMILES: O=C(NCc1ccc(Cc2c[nH]cn2)cc1)Nc1cccnc1

inhibition [4]: < 50%
SMILES: O=C(NCc1ccc(Cc2c[nH]cn2)cc1)Nc1cnccn1

Cmax [5]: 1700 ng/mL
AUC [6]: 18100 ng·h/mL
bioavailability [7]: 44%
Concentration [8]: 207 nM
half-life [10]: 4.4 h
Cmax [11]: 1700 ng/mL
AUC [12]: 12600 ng·h/mL
SMILES: O=C(NCc1ccc(Cc2c[nH]cn2)cc1)Nc1cc(Cl)cc(Cl)c1
Concentration [9]: 805 nM

SMILES: O=C(Nc1ccc(Cl)cc1)OCc1ccc(Cc2c[nH]cn2)cc1
Ki [1]: 25 nM

Ki [1]: 3 nM
SMILES: O=C(NCc1ccc(Cc2c[nH]cn2)cc1)Nc1cc(Cl)nc(Cl)c1

SMILES: NC(=O)NCc1ccc(Cc2c[nH]cn2)cc1
inhibition [13]: < 50%

Ki [1]: 37 nM
SMILES: O=C(Nc1ccccc1)OCc1ccc(Cc2c[nH]cn2)cc1

inhibition [14]: < 50%
SMILES: O=C(NCc1ccccc1)NCc1ccc(Cc2c[nH]cn2)cc1
